These results are taken from patent US11571418B2, “Platinum compounds that inhibit constitutive STAT3 signaling and induce cell cycle arrest and apoptosis of malignant cells” (H. LEE MOFFITT CANCER CENTER AND RESEARCH INSTITUTE, INC., priority 2011, dated 2023).

For one assay, the system named is pLucSRE. Description: c-fos promoter-driven luciferase reporter assay. The class given is cell-based. The note with it: transient transfection in mouse fibroblasts. The protocol:
(§1) FIGS. 3A-3D. Inhibition of Stat3-mediated gene expression by PLATINUM-401. (FIG. 3A) and (FIG. 3B) v-Src-transformed mouse fibroblasts that stably express Stat3-dependent (NIH3T3/v-Src/pLucTKS3) and Stat3-independent (NIH3T3/v-Src/pRLSRE) luciferase reporters or β-galactosidase (β-gal), as well as normal mouse fibroblast (NIH3T3) transiently transfected with pLucTKS3, pGL2-VEGF-Luc, NFkB-Luc or pLucSRE together with or without v-Src were treated with or without PLATINUM-401 for 48 h. Cytosolic extracts were then prepared from cells for luciferase and […] activities measurements. […]
Cell proliferation and TUNEL assays—Proliferating cells were first treated with or without PLATINUM-401 for up to 48 h. A portion of cells were harvested for BrdU incorporation following the manufacturer's (BD Biosciences Pharmingen, San Diego, Calif.) instructions and analyzed by flow cytometry. Harvested cells were also analyzed for apoptosis via detection of TdT-mediated dUTP nick-end labeling (TUNEL) assay using Apoptosis Detection Systems Fluorescein according to the manufacturer's (Roche, Indianapolis, Ind.) instructions. […]
(§2) To further investigate the activities of PLATINUM-401, the inventors treated malignant cells and measured effects on Stat3 signaling. […]

For assay [1], the system named is Stat3-dependent firefly luciferase reporter pLucTKS3. Description: Stat3-dependent luciferase reporter assay. The class given is cell-based, mouse. The note with it: stable NIH3T3/v-Src/pLucTKS3, 48 h. As for the experimental part: as §1
Cytosolic extract preparation and luciferase assays—Cytosolic extract preparation from fibroblasts and luciferase assays were previously described (Turkson et al., 1998; Turkson et al., 1999). […] Cells were resuspended in 0.4 ml of low-salt HEPES buffer (10 mM HEPES [pH 7.8], 10 mM KCl, 0.1 mM EGTA, 0.1 mM EDTA, 1 mM phenylmethylsulfonyl fluoride (PMSF), and 1 mM dithiothreitol (DTT)) for 15 min, lysed by the addition of 20 μl of 10% Nonidet P-40 (NP-40), and centrifuged (10,000×g, 30 s, 4° C.) to obtain the cytosolic supernatant, which was used for luciferase assays (Promega) measured with a luminometer. […]
as §2
For orientation: In a reporter assay the amount or activity of a reporter protein is the signal.

The subject of assay [2] is hSIE oligonucleotide probe. Description: Pre-treatment of hSIE oligonucleotide with compound, then Stat3 binding by EMSA. The note with it: oligonucleotide treated 30 min, then radiolabeled. The protocol:
To investigate the possibility that PLATINUM-401 might alter the integrity of the hSIE oligonucleotide probe that is used in the DNA-binding activity studies and thereby inhibit Stat3 binding, the oligonucleotide was first treated with PLATINUM-401 for 30 min. Pre-treated oligonucleotide was then radiolabeled and tested for its ability to bind to activated Stat3 in vitro. […] While PLATINUM-401 was in direct contact with the oligonucleotide probe during the pre-treatment stage and prior to radiolabeling of the probe, it is unlikely to have been retained with the oligonucleotide probe following purification of the probe and therefore would not have come into contact with Stat3 protein at the time of the in vitro DNA-binding assay.
(In general: A gel shift assay detects complexes by their altered migration in electrophoresis.)

Take `CC(O)CN1CCN(CC(C)O)CC1` (stereo not drawn) [PLATINUM-401]: in the assay with pLucSRE, the “induction of c-fos promoter-driven luciferase reporter activity” value is “no inhibitory effects”. In addition, the “induction of Stat3-dependent reporter” value in assay [1] is “strongly suppresses”. The “effect of pre-treatment of hSIE oligonucleotide on its ability to bind activated Stat3” value in assay [2] is recorded as “no observable effect”.
